From publication PMC11833736 (ACS Pharmacology & Translational Science, 2025)
Where “and” joins values, the source holds several entries; their conditions need not be identical. Identical values can stand only once.

Tests used:
[1] = test system: U-87MG glioblastoma cells; assay: Cytotoxicity, SRB end-point assay, dark or green light; conditions: read-out: EC50,D, kept in the dark, 24 h + 48 h incubation, normoxic (21% O2)
U-87MG cells [2] = assay: Ru cellular uptake by ICP-MS; assay type: in vitro ADME; conditions: 10 μM; for Ru cellular uptake: dark
Description: The cellular accumulation of Ru^2+ can provide additional information about how differences in anticancer efficacy may relate to the amount of the Ru prodrug in the cell before light activation. For instance, low uptake often leads to limited cytotoxicity due to limited access to the drug target. […] Similar results have been observed in A549 lung cancer cells previously.[56] […] For unknown reasons, it appears that the amine bridge in the i-diqa ligand facilitates the uptake of ruthenium compound [3](PF6)2.
Materials: 65% nitric acid (Suprapur, Merck) was used in the sample digestion process, while diluted 1% nitric acid (v/v) was employed as a carrying solution throughout the ICP measurements. For preparation of calibration and internal standards, National Institute of Standards and Technology (NIST)-traceable 1000 mg/L elemental standards were used (TraceCERT, Fluka). Approximately 18 MΩ cm^–1 water (Milli-Q) was employed in all sample preparation and analysis steps.
Instrumentation: Calibration standards were prepared in a Secuflow fume hood (SCALA) to prevent contamination by atmospheric particulates. The standard samples and measurement samples were analyzed for trace elements using the NexION 2000 (PerkinElmer) ICP-MS instrument equipped with a concentric glass nebulizer and a Peltier-cooled glass spray chamber. An SC2 DX autosampler (PerkinElmer) was connected to ICP-MS for sample introduction. Syngistix software for ICP-MS (v.2.5, PerkinElmer) was used for all data recording and processing. Five trace elemental calibration standards for ICP-MS analysis were prepared using NIST-traceable 1000 mg/L Ru standards: 0, 1, 5, 20, and 100 μg/L. Samples were analyzed without dilution in the original delivery containers to minimize the possibility of contamination. Here, 10 μg/L Rh and In were used as internal standards. To check the calibration, samples were analyzed with a blank measurement and a repeat measurement with one of the calibration standards.
Sample preparation: 1 mL of U-87MG cells were seeded in 12-well plates (Greiner, No. 665180; 400.000 cells per well). […] Afterward, the cells were trypsined, collected, and centrifuged. The resulting cell pellet was dissolved in 1 mL of PBS and counted via a BioRad TC20 automated cell counter. Afterward, the solution was centrifuged and washed again with PBS with subsequent centrifuging. This washing step was repeated twice. The resulting cell pellet was digested in 0.5 mL of 65% HNO3 overnight in a hot oven (90 °C). The solution was diluted with Milli-Q water to 10 mL, and the Ru content [ppb] was measured by ICP-MS.

SH-SY5Y cells [3] = assay: Cytotoxicity, SRB end-point assay, dark or green light; assay type: cell-based; conditions: for EC50: kept in the dark, SRB, normoxic (21% O2)
SH-SY5Y cells [4] = assay: Ru cellular uptake by ICP-MS, dark or green light; assay type: in vitro ADME; conditions: kept in the dark
Experimental: These surprising results led us to further investigate whether the uptake of the respective compounds plays a pivotal role in the alternation of the proliferation. […] The complex was allowed to incubate for 24 h after irradiation before the ruthenium cellular content was analyzed by ICP-MS. […] We finally decided to incubate the SH-SY5Y cells with the EC50 values obtained from the cytotoxicity experiment using the U-87MG cell, as those procedures would allow one to observe the effect of the prodrug on the healthy neuron-like cells when treated with the phototoxic compound dose. […] Overall, cellular uptake in neuron-like SH-SY5Y cells followed the same trends as those for GBM cells U-87MG in the dark, while uptake was much higher after light activation.
1 mL of SH-SY5Y cells were seeded in 12-well plates (Greiner, No. 665180; 500.000 cells per well). […] After an additional 24 h of incubation, the cells were trypsined, collected, and centrifuged. The resulting cell pellet was dissolved in 1 mL of PBS and counted via a BioRad TC20 automated cell counter. Afterward, the solution was centrifuged and washed again with PBS with subsequent centrifuging two more times. The resulting cell pellet was digested in 0.5 mL of HNO3 overnight in a hot oven (90 °C). The solution was diluted with Milli-Q water to 10 mL, and the Ru and Ca content [ppb] was measured via ICP-MS.

U-87MG cells [5] = assay: Cell fractioning (FractionPREP kit), Ru content by ICP-MS; assay type: in vitro ADME; conditions: 10 μM, 24 h
Experimental: Ru content in different compartments was determined via a FractionPREP Cell Fractionation Kit (Abcam, Cambridge, U.K., no 288085). U-87MG cells were seeded in 25 cm^2 OptiMEM medium (1.5 × 10^6 cells) for 24 h. […] Untreated cells served as control. After 24 h of incubation, the cells were collected, counted, and fractioned according to the manufacturer’s procedure. In short, the cells were collected and centrifuged at 700g for 5 min. The cells were then washed with ice-cold PBS (1 mL) followed by 5 min centrifuging at 700g, and the supernatant was removed. The cell pellet was resuspended in 1 mL of ice-cold PBS, transferred into a 1.5 mL Eppendorf tube, and spun for 5 min at 700g, and the supernatant was removed. The pellet was resuspended in 400 μL of Extraction Buffer III/Cytosol Extraction Buffer Mix [containing 2 μL of dithiothreitol (DTT) and 2 μL of protease inhibitor cocktail per mL]. The cells were mixed well by carefully pipetting up and down (ca. 5 times). The sample was incubated on ice for 20 min with gentle tapping three to four times every 5 min. Afterward, the sample was centrifuged at 700g for 10 min. The supernatant was collected (cytosolic fraction) and kept on ice. The resulting pellet was again resuspended in 400 μL of ice-cold Extraction Buffer IV/Membrane Extraction Buffer-A Mix (containing 2 μL of DTT and 2 μL of protease inhibitor cocktail per mL) and pipetted several times, and the sample was vortexed for 10–15 s to mix well. Then, 22 μL of Lysis Buffer/Membrane Extraction Buffer-B was added and vortexed for 5 s. The samples were incubated for 1 min on ice. Afterward, the sample was vortexed again for 5 s and centrifuged for 5 min at 1000g. The supernatant was immediately transferred to a clean, prechilled 1.5 mL tube and kept on ice (membrane fraction). The pellet was again resuspended in 200 μL of ice-cold Extraction Buffer V/Nuclear Extraction Buffer mix (containing 2 μL of DTT and 2 μL of protease inhibitor cocktail per mL), vortexed for 15 s, and kept on ice for 40 min with constant vortex for 15 s every 10 min. The sample was then microcentrifuged at top speed for 10 min. The resulting supernatant was transferred in a clean, prechilled 1.5 mL tube (nuclear fraction) and kept on ice. The remaining cytoskeletal fraction was dissolved in 100 μL of 0.2% SDS containing 10 mM DTT solution. All samples were digested over 65% HNO3 (0.5 mL) in an oven hot oven (90 °C). The solution was diluted with Milli-Q water to 10 mL, and the Ru content [ppb] was measured by ICP-MS.

Row | SMILES | EC50 [1] | Uptake in % (U-87MG cells [2]; 6 h) | Ru cellular uptake (U-87MG cells [2]; 6 h incubation) | Uptake in % (U-87MG cells [2]; 24 h) | Ru cellular uptake (U-87MG cells [2]; 24 h incubation) | concentration required to block cell growth (SH-SY5Y cells [3]; in the dark) | EC50 (SH-SY5Y cells [3]) | Ru uptake, Dark (SH-SY5Y cells [4]; 20 μM) | Ru content, Cytosol (U-87MG cells [5]) | Ru content, Membrane (U-87MG cells [5]) | Ru content, Nucleus (U-87MG cells [5]) | Ru uptake, Dark (SH-SY5Y cells [4]; 10 μM)
1 | CSCCO.F[P-](F)(F)(F)(F)F.F[P-](F)(F)(F)(F)F.[Ru+2].c1ccc(-c2cccc(-c3ccccn3)n2)nc1.c1ccc2cc(-c3cc4ccccc4cn3)ncc2c1 [[2](PF6)2] | 19 µM and 19.4 µM | 0.8% and 0.82% | 0.5 ng Ru/mio. cells and 0.54 ± 0.08 ng Ru/mio. cells | 1.5% | 0.82 ± 0.09 ng Ru/mio. cells | > 40 µM | > 100 µM | 1.02 ± 0.63 ng Ru/mio. cells and 1.0 ng Ru/mio. cells | 0.18 ng Ru/mio. cells and 0.18 ± 0.06 ng Ru/mio. cells | 0.83 ng Ru/mio. cells and 0.83± 0.57 ng Ru/mio. cells | 0.03 ± 0.03 ng Ru/mio. cells | 
2 | CSCCO.F[P-](F)(F)(F)(F)F.F[P-](F)(F)(F)(F)F.[Ru+2].c1ccc(-c2cccc(-c3ccccn3)n2)nc1.c1ccc2cc(Nc3cc4ccccc4cn3)ncc2c1 [[3](PF6)2] | 37 µM | 12.4% | 2.1 ng Ru/mio. cells and 2.14 ± 0.49 ng Ru/mio. cells | ~11.5% | 1.98 ng Ru/mio. cells and 1.98 ± 0.33 ng Ru/mio. cells |  | 34.2 µM |  | 0.07 ± 0.05 ng Ru/mio. cells | 0.88 ng Ru/mio. cells and 0.88 ± 0.25 ng Ru/mio. cells | 0.17 ng Ru/mio. cells and 0.17 ± 0.06 ng Ru/mio. cells | 2.44 ± 0.63 ng Ru/mio. cells and 2.4 ng Ru/mio. cells
